# Measurements published in US20150164791A1, “CORNEAL SHAPING” (priority 2005, published 2015).
# Key:
# MMPs 1, 2 and 8 = settings: rat corneas; cited from earlier work
# MMP's 1, 2, 8 and 9 = settings: topical; rat cornea; animals with epithelial defects and with intact epithelium; cited from earlier work
# [1] = in vivo; cited from earlier work
# [2] = tested on: matrix metalloproteinases; assay: Activation of matrix metalloproteinases by gatifloxacin (established by the inventor)
smiles,measurement,setting,value
O=C(O)Cc1ccccc1Nc1c(Cl)cccc1Cl [Diclofenac],"expression of MMPs 1, 2 and 8","MMPs 1, 2 and 8",induce expression
O=C(O)c1cn(C2CC2)c2cc(N3CCNCC3)c(F)cc2c1=O [ciprofloxacin],MMP levels in corneal epithelium and anterior stroma,"MMP's 1, 2, 8 and 9",increased
"C[C@H]1c2cccc(O)c2C(O)=C2C(=O)[C@]3(O)C(O)=C(C(N)=O)C(=O)[C@@H](N(C)C)[C@@H]3[C@@H](O)[C@@H]21 [doxycyline, doxycycline]",corneal penetration,[1],penetrate the cornea well
same,tolerability,[1],well tolerated
COc1c(N2CCNC(C)C2)c(F)cc2c(=O)c(C(=O)O)cn(C3CC3)c12 (stereo not drawn) [gatifloxacin],activation of matrix metalloproteinases,[2],capable of activating matrix metalloproteinases
O=C(c1ccccc1)c1ccc2n1CCC2C(=O)O (stereo not drawn) [ketorolac],"expression of MMPs 1, 2 and 8","MMPs 1, 2 and 8",induce expression
